Measurements published in PubChem BioAssay AID1919008 (Molecular Pharmacology Branch, DTP, NCI, 2023).

Test system: DMS-114 complex spheroids with HUVEC/MSC, growth % test/control
Test: Anticancer human tumor DMS-114 cell line growth inhibition [AhR];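 also: spheroids exposed to agents for 7 days before readout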;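 as to viability, T/C: 100% = DMSO vehicle control wells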
Conditions: for IC50: curve of first compound; for viability, T/C: stronger effect = lower value
Description: Multicellular complex tumor spheroid response to aryl hydrocarbon receptor antagonists in combination with a variety of drugs and investigational agents in selected tumor cell lines
The current study was undertaken to assess response to aryl hydrocarbon receptor antagonists in combination with standard-of-care drugs and investigational agents in solid tumor complex spheroid models. Complex spheroids include a stromal component modeled by human endothelial cells (HUVEC) and fibroblasts modeled by human mesenchymal stem cells (MSCs). The concentration ranges selected for each drug and investigational agent were based upon clinically achievable concentrations if the clinical Cmax of the agent was known.
Compounds. The drugs and investigational agents: BAY 2416964 (NSC825713), GNF351 (NSC835774), CH-223191 (NSC835775), CPI-455 (NSC825282), aza-TdCyd (NSC777586), decitabine (NSC127716), belinostat (NSC758774), entinostat (NSC756642), pevonedistat (NSC761192), tazemetostat (NSC777109), talazoparib (NSC765396), olaparib (NSC753686), selinexor (NSC780203), nedisertib (M3814, NSC802822), bortezomib (NSC756655), venetoclax (NSC766270), doxorubicin (NSC123127), elimusertib (BAY189344, NSC800525), ceralasertib (AZD6738, NSC777638), TAK-243 (NSC785004), alisertib (NSC759677), etoposide (NSC141540), topotecan (NSC609699), eribulin (NSC707389), gemcitabine (NSC613327), carboplatin (NSC241240), cisplatin (NSC119875), and SN-38 (NSC673596) were obtained from the National Cancer Institute (NCI) Developmental Therapeutics Program Chemical Repository (32). The FDA-approved anticancer drug set is available from the Developmental Therapeutics Program at https://dtp.cancer.gov/organization/dscb/obtaining/available plates.htm. […] The stock solutions were prepared in dimethyl sulfoxide (DMSO, Sigma-Aldrich, St. Louis, MO, cat. D2650), except for the platinum compounds which were prepared in saline (Quality Biological, Gaithersburg, MD, cat. 114-055-101), at 800-fold the tested concentration and stored at -70 degrees C prior to their use. All drugs and investigational agents were tested over a range starting from a high concentration at or near the clinical Cmax and decreasing in half-log increments. If the clinical Cmax for an agent had not been determined, the highest concentration tested was 10 microM (Table 1).
Cell Culture. All cells were maintained in an incubator at 37 degrees C and 5% CO2 with 95% humidity. The PDC lines were cultured according to standard operating procedures established by the NCI PDMR (https://pdmr.cancer.gov). Briefly, all PDCs were thawed and cultured in Matrigel-coated flasks prepared with a working solution of 1X Ham's F-12 nutrient mix, without supplementation (Invitrogen, Waltham, MA, cat. 11765054), 100 U/mL penicillin-streptomycin (Invitrogen, cat. 15140122), and 2.5% Matrigel (Corning Inc., Corning, NY, cat. 354248) for the first three passages. All PDCs were cultured in complete DMEM/F-12 media containing advanced DMEM/F-12 (Invitrogen, cat. 12634028), 4.9% defined fetal bovine serum, heat inactivated (HyClone Laboratories Inc., Logan, UT, cat. SH30070.03HI), 389 ng/mL hydrocortisone (Sigma-Aldrich, cat. H4001), 9.7 ng/mL human EGF recombinant protein (Invitrogen, cat. PHG0313), 23.4 microg/mL adenine (Sigma-Aldrich, cat. A2786), 97.3 U/mL penicillin-streptomycin (Invitrogen, cat. 15140122), 1.9 mM L-glutamine (Invitrogen, cat. 25030081), and 9.7 microM Y-27632 dihydrochloride (Tocris Bioscience, Bristol, United Kingdom, cat. 1254). The PDCs were cultured in complete DMEM/F12 media without 10 microM Y-27632 dihydrochloride for at least two passages prior to the screen. The established cell lines NCI-H1341 and […] were cultured in DMEM/F-12, HEPES (Invitrogen, cat. 11330032), 5% defined fetal bovine serum (HyClone Laboratories Inc., cat. SH30070.03), ITS premix universal culture supplement [insulin (5 microg/mL), transferrin (5 microg/mL), and selenious acid (5 ng/mL)] […]

[1] = second compound 0.1 µM, first compound 0.0316 µM
[2] = second compound 0.1 µM, first compound 0.1 µM
[3] = second compound 0.1 µM, first compound 0.316 µM
[4] = second compound 0.1 µM, first compound 1 µM
[5] = second compound 0.1 µM, first compound 3.16 µM
[6] = second compound 0.1 µM, first compound 10 µM
[7] = second compound 0.316 µM, first compound 0.0316 µM
[8] = second compound 0.316 µM, first compound 0.1 µM
[9] = second compound 0.316 µM, first compound 0.316 µM
[10] = second compound 0.316 µM, first compound 1 µM
[11] = second compound 0.316 µM, first compound 3.16 µM
[12] = second compound 0.316 µM, first compound 10 µM
[13] = second compound 1 µM, first compound 0.0316 µM
[14] = second compound 1 µM, first compound 0.1 µM
[15] = second compound 1 µM, first compound 0.316 µM
[16] = second compound 1 µM, first compound 1 µM
[17] = second compound 1 µM, first compound 3.16 µM
[18] = second compound 1 µM, first compound 10 µM
[19] = second compound 3.16 µM, first compound 0.0316 µM
[20] = second compound 3.16 µM, first compound 0.1 µM
[21] = second compound 3.16 µM, first compound 0.316 µM
[22] = second compound 3.16 µM, first compound 1 µM
[23] = second compound 3.16 µM, first compound 3.16 µM
[24] = second compound 3.16 µM, first compound 10 µM
[25] = second compound 10 µM, first compound 0.0316 µM
[26] = second compound 10 µM, first compound 0.1 µM
[27] = second compound 10 µM, first compound 0.316 µM
[28] = second compound 10 µM, first compound 1 µM
[29] = second compound 10 µM, first compound 3.16 µM
[30] = second compound 10 µM, first compound 10 µM

Compound	IC50 (second compound 0.1 µM)	IC50 (second compound 0.316 µM)	IC50 (second compound 1 µM)	IC50 (second compound 3.16 µM)	IC50 (second compound 10 µM)	viability, T/C [1]	viability, T/C [2]	viability, T/C [3]	viability, T/C [4]	viability, T/C [5]	viability, T/C [6]	viability, T/C [7]	viability, T/C [8]	viability, T/C [9]	viability, T/C [10]	viability, T/C [11]	viability, T/C [12]	viability, T/C [13]	viability, T/C [14]	viability, T/C [15]	also measured
COc1cc(Nc2ncc3c(n2)-c2ccc(Cl)cc2C(c2c(F)cccc2OC)=NC3)ccc1C(=O)O + CC(CO)NC(=O)c1cc(-c2ccc(Cl)cc2)nn(-c2cnn(C)c2)c1=O	< 0.0316 µM	< 0.0316 µM	< 0.0316 µM	< 0.0316 µM	< 0.0316 µM	24.8%	25.1%	63.5%	53.1%	69.2%	54.8%	28.4%	25.6%	58%	72%	63.7%	65.5%	25.8%	23.3%	63.6%	viability, T/C [16]: 58.3%; viability, T/C [17]: 61.4%; viability, T/C [18]: 59.8%; viability, T/C [19]: 26.2%; viability, T/C [20]: 21.2%; viability, T/C [21]: 65.6%; viability, T/C [22]: 62.3%; viability, T/C [23]: 73.6%; viability, T/C [24]: 64.6%; viability, T/C [25]: 25.6%; viability, T/C [26]: 24.2%; viability, T/C [27]: 50.6%; viability, T/C [28]: 61.5%; viability, T/C [29]: 58.9%; viability, T/C [30]: 66.9%
NS(=O)(=O)OCC1CC(n2ccc3c(NC4CCc5ccccc54)ncnc32)CC1O (stereo not given) + CC(CO)NC(=O)c1cc(-c2ccc(Cl)cc2)nn(-c2cnn(C)c2)c1=O	< 0.0316 µM	0.0381 µM	< 0.0316 µM	0.0333 µM	< 0.0316 µM	39.8%	35.6%	16%	11%	7.57%	6.46%	53.4%	32.2%	17.7%	9.64%	8.09%	6.7%	47.9%	35.5%	16.3%	viability, T/C [16]: 12.2%; viability, T/C [17]: 7.56%; viability, T/C [18]: 7.46%; viability, T/C [19]: 50.6%; viability, T/C [20]: 34.8%; viability, T/C [21]: 17.8%; viability, T/C [22]: 11.7%; viability, T/C [23]: 8.81%; viability, T/C [24]: 6.82%; viability, T/C [25]: 49.4%; viability, T/C [26]: 40%; viability, T/C [27]: 18.3%; viability, T/C [28]: 10.8%; viability, T/C [29]: 8.39%; viability, T/C [30]: 8.61%
